{"source": "paper PMC3192407", "about": "“Both Basic and Acidic Amino Acid Residues of IpTxa Are Involved in Triggering Substate of RyR1” (Journal of Biomedicine and Biotechnology, 2011)", "note": "Bridge positions count the residues as written; N and C are the ends. Peptide text beside a SMILES is read from it.", "data": [{"molecular_target": "T1, rabbit skeletal RyR1 (native RyR1 in HSR) (Oryctolagus cuniculus, UniProt P11716)", "T1 construct": "tested using native RyR1 in rabbit skeletal HSR; from tissue; host or cells: rabbit fast-twitch back and leg muscles (heavy SR vesicles)", "experiment": "Planar lipid bilayer single-channel recording, native RyR1 in HSR", "format": "biochemical", "conditions": "native RyR1 in SR, toxin cis, 6-100 nM, -30 mV, [Ca^2+]free 10 μM, pH 7.2, Hill fit, means ± SE of 3–9 experiments; read-out: EC50 for Psubstate", "protocol": "A heavy fraction of fragmented SR vesicles (HSR) containing junctional SR was prepared from rabbit fast-twitch back and leg muscles as described previously.\nSingle-channel recordings of rabbit skeletal RyR1 incorporated into planar lipid bilayers were carried out as described previously. Lipid bilayers, consisting of brain tissue phosphatidylethanolamine and phosphatidylserine (1 : 1) in decane (20 mg/mL) were formed across a hole of approximately 200 μm diameter. Thinning of the bilayer was monitored by bilayer capacitance. The basic composition of the cis/trans solution consisted of 300 mM cesium methanesulfonate, 10 mM Tris/Hepes (pH 7.2), 2 mM EGTA, and 1.998 mM CaCl2 ([Ca^2+]free = 10 μM). [Ca^2+]free was calculated using the “Chelator” program (Theo Schoenmaker). Cs^+ was selected as the charge carrier to ensure precise control of free [Ca^2+], to increase the channel conductance, and to avoid any contribution from potassium channels present in the SR membrane. Chloride channels were inhibited by using the impermeant anion methanesulfonate. Incorporation of ion channels was carried out as described by Miller and Racker and confirmed by recording the characteristically high single-channel conductance of RyRs. The trans side was maintained at ground and the cis side was clamped at −30 mV relative to the ground. After addition of the IpTxa to the cis chamber, the single channel data were collected at −30 mV for 2–5 min. […] Recordings were filtered with an 8-pole low-pass Bessel filter at 1 kHz and digitalized through a Digidata 1200 series interface (Axon Instruments). Data acquisition and analysis were done with the Axon Instruments software, pClamp v7.0.\nData were analyzed using the Hill equation described previously:\n(1) Psubstate=(Psubstate, max )/[1+(EC50/[IpTxa])^nH] orPo=(Po, max )/[1+(EC50/[IpTxa])^nH], where (Po, max ) is the Po observed at saturating concentrations of IpTxa, EC50 is the IpTxa concentration for which 50% of Po, max is obtained and nH is the Hill coefficient. Also, Psubstate, max is the Psubstate observed at saturating concentrations of IpTxa, EC50 is the IpTxa concentration for which 50% of Psubstate, max is obtained, and nH is the Hill coefficient. The probability of full open state of the channel (Po) was defined as the ratio of the time spent in the open state to the total time exclusive of time spent in the substate. The probability to obtain substate (Psubstate) was calculated as the time spent in the substate divided by a given total recording time. The durations of the substate were obtained by manual positioning of the cursors and constructing all point histograms. Mean duration of substate was measured by total substate time divided by total substate frequencies.\nResults are given as means ± SE. Significant differences were analyzed using Student's t-test. Differences were considered to be significant when P < 0.05. The fitting of the data to the graphs were carried out using the software, Origin v7.\nTo examine how IpTxa modifies RyR1 activity, RyR1 in HSR incorporated in planar lipid bilayers was tested in the presence or absence of synthetic wild-type IpTxa. The chamber solutions for both cis (cytosolic) and trans (luminal) sides included 300 mM cesium methanesulfonate and 10 mM Tris-Hepes (pH 7.2). 10 μM free Ca^2+ was added to the cis side to activate the incorporated RyR1. After an addition of IpTxa to the cis chamber, the single channel gating properties were recorded at a holding potential of −30 mV for over 2 min at each toxin concentration. […] To examine the effects of IpTxa on full open state, we calculated the probability to obtain the full open state (Po) as the time spent in the open state divided by the total time exclusive of the time spent in the substate. The time for recorded Po was in the range of 30 s–2 min. […] The steady-state Po was 0.18 ± 0.02 at 10 μM Ca^2+. […]", "units": {"EC50": "nM"}, "values": [{"smiles": "CC(C)C[C@@H]1NC(=O)[C@H](Cc2c[nH]cn2)NC(=O)[C@@H]2CCCN2C(=O)[C@H](CC(C)C)NC(=O)[C@@H](NC(=O)[C@H](CC(=O)O)NC(=O)CN)CSSC[C@@H]2NC(=O)[C@@H]3CSSC[C@@H](C(=O)N[C@@H](CCCNC(=N)N)C(=O)O)NC(=O)[C@H](CCCNC(=N)N)NC(=O)[C@H](CCCCN)NC(=O)[C@H](CCC(=O)O)NC(=O)[C@H](C)NC(=O)[C@H](CC(N)=O)NC(=O)[C@H]([C@@H](C)O)NC(=O)CNC(=O)[C@H](CCCNC(=N)N)NC(=O)[C@H](C)NC(=O)[C@H](CCCCN)NC(=O)[C@H](CSSC[C@H](NC(=O)[C@H](CCCNC(=N)N)NC(=O)[C@H](CCCCN)NC1=O)C(=O)N[C@@H](CCCCN)C(=O)N[C@@H](C)C(=O)N[C@@H](CC(=O)O)C(=O)N[C@@H](CC(N)=O)C(=O)N[C@@H](CC(=O)O)C(=O)N3)NC(=O)[C@H](CCCCN)NC(=O)[C@H](CCCCN)NC(=O)CNC2=O", "note": "[R23A] (H-GDCLPHLKRCKADNDCCGKKCKARGTNAEKRCR-OH; disulfide 3-17, 10-21, 16-32)", "EC50": "19.5 ± 9.36"}, {"smiles": "CC(C)C[C@@H]1NC(=O)[C@H](Cc2c[nH]cn2)NC(=O)[C@@H]2CCCN2C(=O)[C@H](CC(C)C)NC(=O)[C@@H](NC(=O)[C@H](C)NC(=O)CN)CSSC[C@@H]2NC(=O)[C@@H]3CSSC[C@@H](C(=O)N[C@@H](CCCNC(=N)N)C(=O)O)NC(=O)[C@H](CCCNC(=N)N)NC(=O)[C@H](CCCCN)NC(=O)[C@H](CCC(=O)O)NC(=O)[C@H](C)NC(=O)[C@H](CC(N)=O)NC(=O)[C@H]([C@@H](C)O)NC(=O)CNC(=O)[C@H](CCCNC(=N)N)NC(=O)[C@H](CCCNC(=N)N)NC(=O)[C@H](CCCCN)NC(=O)[C@H](CSSC[C@H](NC(=O)[C@H](CCCNC(=N)N)NC(=O)[C@H](CCCCN)NC1=O)C(=O)N[C@@H](CCCCN)C(=O)N[C@@H](C)C(=O)N[C@@H](CC(=O)O)C(=O)N[C@@H](CC(N)=O)C(=O)N[C@@H](CC(=O)O)C(=O)N3)NC(=O)[C@H](CCCCN)NC(=O)[C@H](CCCCN)NC(=O)CNC2=O", "note": "[D2A] (H-GACLPHLKRCKADNDCCGKKCKRRGTNAEKRCR-OH; disulfide 3-17, 10-21, 16-32)", "EC50": "28.6 ± 14"}, {"smiles": "CC(C)C[C@@H]1NC(=O)[C@H](Cc2c[nH]cn2)NC(=O)[C@@H]2CCCN2C(=O)[C@H](CC(C)C)NC(=O)[C@@H](NC(=O)[C@H](CC(=O)O)NC(=O)CN)CSSC[C@@H]2NC(=O)[C@@H]3CSSC[C@@H](C(=O)N[C@@H](CCCNC(=N)N)C(=O)O)NC(=O)[C@H](CCCNC(=N)N)NC(=O)[C@H](CCCCN)NC(=O)[C@H](CCC(=O)O)NC(=O)[C@H](C)NC(=O)[C@H](CC(N)=O)NC(=O)[C@H]([C@@H](C)O)NC(=O)CNC(=O)[C@H](CCCNC(=N)N)NC(=O)[C@H](CCCNC(=N)N)NC(=O)[C@H](CCCCN)NC(=O)[C@H](CSSC[C@H](NC(=O)[C@H](C)NC(=O)[C@H](CCCCN)NC1=O)C(=O)N[C@@H](CCCCN)C(=O)N[C@@H](C)C(=O)N[C@@H](CC(=O)O)C(=O)N[C@@H](CC(N)=O)C(=O)N[C@@H](CC(=O)O)C(=O)N3)NC(=O)[C@H](CCCCN)NC(=O)[C@H](CCCCN)NC(=O)CNC2=O", "note": "[R9A] (H-GDCLPHLKACKADNDCCGKKCKRRGTNAEKRCR-OH; disulfide 3-17, 10-21, 16-32)", "EC50": "19.9 ± 3.16"}, {"smiles": "CC(C)C[C@@H]1NC(=O)[C@H](Cc2c[nH]cn2)NC(=O)[C@@H]2CCCN2C(=O)[C@H](CC(C)C)NC(=O)[C@@H](NC(=O)[C@H](CC(=O)O)NC(=O)CN)CSSC[C@@H]2NC(=O)[C@@H]3CSSC[C@@H](C(=O)N[C@@H](CCCNC(=N)N)C(=O)O)NC(=O)[C@H](CCCNC(=N)N)NC(=O)[C@H](CCCCN)NC(=O)[C@H](CCC(=O)O)NC(=O)[C@H](C)NC(=O)[C@H](CC(N)=O)NC(=O)[C@H]([C@@H](C)O)NC(=O)CNC(=O)[C@H](C)NC(=O)[C@H](CCCNC(=N)N)NC(=O)[C@H](CCCCN)NC(=O)[C@H](CSSC[C@H](NC(=O)[C@H](CCCNC(=N)N)NC(=O)[C@H](CCCCN)NC1=O)C(=O)N[C@@H](CCCCN)C(=O)N[C@@H](C)C(=O)N[C@@H](CC(=O)O)C(=O)N[C@@H](CC(N)=O)C(=O)N[C@@H](CC(=O)O)C(=O)N3)NC(=O)[C@H](CCCCN)NC(=O)[C@H](CCCCN)NC(=O)CNC2=O", "note": "[R24A] (H-GDCLPHLKRCKADNDCCGKKCKRAGTNAEKRCR-OH; disulfide 3-17, 10-21, 16-32)", "EC50": "26 ± 7.01"}]}]}
